Data on 15 molecules can be found in ChEMBL document CHEMBL3286390, “Lead optimization of 1,4-azaindoles as antimycobacterial agents” (J Med Chem, 2014).

Converted amounts (≈) assume the structure as drawn.

Data set [1] concerns Mycobacterium tuberculosis. It counts as functional, H37Rv ATCC 27294, THP-1. The settings on record: Mycobacterium tuberculosis, H37Rv ATCC 27294; read-out: MIC.
The nature of data set [2]: Inhibition of Mycobacterium smegmatis thioredoxin 6xHis-tagged decaprenylphosphoryl-beta-D-ribose2'-epimerase 1 overexpressed in Escherichia coli rosetta cells using farnesyl-phosphoryl-beta-D-ribofuranose as substrate. Also on record: species or system Mycolicibacterium smegmatis.
The nature of data set [3]: Octanol-water partition coefficient, log D of the compound at pH 7.4 by shake flask method. It is filed as physicochemical.
The test system of data set [4] is Mycobacterium tuberculosis. Briefly: microbe, parasite or virus in culture. The settings on record: H37Rv ATCC 27294, 120 h.
Description: Antimicrobial activity against Mycobacterium tuberculosis H37Rv ATCC 27294 assessed as growth inhibition after 5 days by microdilution method
For data set [5], the target named is Phosphodiesterase 6. Briefly: Inhibition of PDE6 (unknown origin). It is filed as protein assay, Homo sapiens.
Data set [6] in a line: Intrinsic clearance in mouse liver microsomes. It is filed as ADME. The settings on record: read-out: CLH.
A short description of data set [7]: Aqueous solubility of the compound in phosphate buffer at pH 7.4 after 24 hrs by UV-MS analysis. It counts as physicochemical.
Data set [8] can be described thus: Unbound fraction in human plasma. It counts as ADME, cell-free.
Data set [9] is described as follows: Permeability across apical to basolateral side in human Caco2 cells. It counts as ADME, cell-based. The settings on record: Caco-2, read-out: permeability.
Data set [10] concerns the target Cytochrome P450 2D6 (Homo sapiens, UniProt P10635). As to the kind of experiment: Inhibition of human CYP2D6. It counts as ADME.
Data set [11] has as its target Cytochrome P450 2C19 (Homo sapiens, UniProt P33261). As to the kind of experiment: Inhibition of human CYP2C19. It is filed as ADME.
The target in data set [12] is Cytochrome P450 2C9 (Homo sapiens, UniProt P11712). Briefly: Inhibition of human CYP2C9. It counts as ADME.
Sequence of Cytochrome P450 2C9 (P11712 whole entry): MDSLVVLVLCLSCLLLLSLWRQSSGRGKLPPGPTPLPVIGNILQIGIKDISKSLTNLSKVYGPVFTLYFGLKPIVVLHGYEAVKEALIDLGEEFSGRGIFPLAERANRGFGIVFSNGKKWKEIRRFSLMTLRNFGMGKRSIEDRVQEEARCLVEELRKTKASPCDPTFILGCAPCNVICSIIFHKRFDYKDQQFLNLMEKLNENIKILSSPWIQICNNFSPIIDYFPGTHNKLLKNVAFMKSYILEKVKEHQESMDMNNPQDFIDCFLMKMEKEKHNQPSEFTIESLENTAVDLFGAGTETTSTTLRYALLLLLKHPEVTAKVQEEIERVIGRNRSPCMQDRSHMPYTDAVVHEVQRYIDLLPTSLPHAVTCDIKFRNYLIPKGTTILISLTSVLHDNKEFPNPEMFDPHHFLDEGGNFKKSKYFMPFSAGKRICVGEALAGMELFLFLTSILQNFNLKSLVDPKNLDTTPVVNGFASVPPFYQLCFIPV
The target in data set [13] is T1, Cytochrome P450 1A2 (Homo sapiens, UniProt P05177).
T1 sequence (P05177 whole entry): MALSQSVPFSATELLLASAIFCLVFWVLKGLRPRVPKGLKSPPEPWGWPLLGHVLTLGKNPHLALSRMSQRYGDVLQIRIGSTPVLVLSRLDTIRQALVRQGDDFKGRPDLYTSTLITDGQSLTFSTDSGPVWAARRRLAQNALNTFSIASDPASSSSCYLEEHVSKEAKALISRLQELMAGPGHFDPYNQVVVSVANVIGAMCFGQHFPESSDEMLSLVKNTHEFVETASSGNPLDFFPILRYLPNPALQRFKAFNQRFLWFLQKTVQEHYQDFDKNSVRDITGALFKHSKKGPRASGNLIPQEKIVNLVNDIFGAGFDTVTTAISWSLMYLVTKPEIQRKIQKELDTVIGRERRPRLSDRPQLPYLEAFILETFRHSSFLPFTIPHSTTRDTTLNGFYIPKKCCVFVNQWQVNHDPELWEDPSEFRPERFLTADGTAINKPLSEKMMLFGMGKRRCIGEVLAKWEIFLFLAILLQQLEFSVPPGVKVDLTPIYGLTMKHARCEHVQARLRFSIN
Briefly: Inhibition of human CYP1A2. It counts as ADME.

Data set [14] addresses Cytochrome P450 3A4 (Homo sapiens, UniProt P08684). Briefly: Inhibition of human CYP3A4. It counts as ADME.
Data set [15] is described as follows: Clearance in po dosed rat. The conditions noted are these: in vivo. It counts as ADME, organism-based.
Data set [16] is described as follows: Oral bioavailability in rat. It is filed as ADME, organism-based. The settings on record: in vivo.
The nature of data set [17]: Cmax in BALB/c mouse at 100 mg/kg, po administered as single dose. It is filed as ADME, organism-based. Details: dose 100 mg/kg, route oral. The conditions noted are these: in vivo.
Data set [18] can be described thus: Tmax in BALB/c mouse at 100 mg/kg, po administered as single dose. Details: dose 100 mg/kg, route oral. The settings on record: in vivo. It counts as ADME, organism-based.
Data set [19] in a line: AUC (infinity) in BALB/c mouse at 100 mg/kg, po administered as single dose. It counts as ADME, organism-based. Details: time infinity, dose 100 mg/kg, route oral. The conditions noted are these: plasma.
Data set [20] can be described thus: Half life in BALB/c mouse at 100 mg/kg, po administered as single dose. It is filed as ADME, organism-based. Also on record: dose 100 mg/kg, route oral. The conditions noted are these: in vivo.
A short description of data set [21]: Permeability across basolateral to apical side in human Caco2 cells. It is filed as ADME, cell-based. The conditions noted are these: Caco-2, read-out: permeability.

Sequence of Cytochrome P450 2D6 (P10635 whole entry): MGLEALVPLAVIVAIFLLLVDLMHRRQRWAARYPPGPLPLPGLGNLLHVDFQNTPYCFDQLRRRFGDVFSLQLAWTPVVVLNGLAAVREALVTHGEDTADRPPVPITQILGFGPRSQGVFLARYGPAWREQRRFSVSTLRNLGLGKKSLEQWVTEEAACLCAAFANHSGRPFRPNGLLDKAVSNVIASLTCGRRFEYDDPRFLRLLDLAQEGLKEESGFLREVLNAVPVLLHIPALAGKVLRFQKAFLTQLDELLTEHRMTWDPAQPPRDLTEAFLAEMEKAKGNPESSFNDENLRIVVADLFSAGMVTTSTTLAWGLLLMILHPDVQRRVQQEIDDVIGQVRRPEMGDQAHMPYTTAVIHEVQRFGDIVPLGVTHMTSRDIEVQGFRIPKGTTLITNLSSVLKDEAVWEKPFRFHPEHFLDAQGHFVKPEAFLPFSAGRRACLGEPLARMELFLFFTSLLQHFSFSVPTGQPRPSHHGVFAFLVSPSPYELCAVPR
Sequence of Cytochrome P450 2C19 (P33261 whole entry): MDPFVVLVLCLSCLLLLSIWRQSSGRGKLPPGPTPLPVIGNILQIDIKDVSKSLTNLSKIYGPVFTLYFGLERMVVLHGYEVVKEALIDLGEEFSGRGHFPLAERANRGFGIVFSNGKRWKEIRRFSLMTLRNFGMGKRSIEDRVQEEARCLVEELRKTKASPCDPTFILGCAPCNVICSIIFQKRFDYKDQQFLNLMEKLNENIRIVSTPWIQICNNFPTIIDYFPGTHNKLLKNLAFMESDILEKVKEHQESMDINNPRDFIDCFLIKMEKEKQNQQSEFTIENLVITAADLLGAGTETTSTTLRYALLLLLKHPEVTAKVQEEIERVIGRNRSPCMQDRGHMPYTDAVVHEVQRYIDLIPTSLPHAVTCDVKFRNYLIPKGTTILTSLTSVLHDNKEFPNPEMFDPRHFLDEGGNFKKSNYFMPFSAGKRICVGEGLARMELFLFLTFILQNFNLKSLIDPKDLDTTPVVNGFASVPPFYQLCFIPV
Sequence of Cytochrome P450 3A4 (P08684 whole entry): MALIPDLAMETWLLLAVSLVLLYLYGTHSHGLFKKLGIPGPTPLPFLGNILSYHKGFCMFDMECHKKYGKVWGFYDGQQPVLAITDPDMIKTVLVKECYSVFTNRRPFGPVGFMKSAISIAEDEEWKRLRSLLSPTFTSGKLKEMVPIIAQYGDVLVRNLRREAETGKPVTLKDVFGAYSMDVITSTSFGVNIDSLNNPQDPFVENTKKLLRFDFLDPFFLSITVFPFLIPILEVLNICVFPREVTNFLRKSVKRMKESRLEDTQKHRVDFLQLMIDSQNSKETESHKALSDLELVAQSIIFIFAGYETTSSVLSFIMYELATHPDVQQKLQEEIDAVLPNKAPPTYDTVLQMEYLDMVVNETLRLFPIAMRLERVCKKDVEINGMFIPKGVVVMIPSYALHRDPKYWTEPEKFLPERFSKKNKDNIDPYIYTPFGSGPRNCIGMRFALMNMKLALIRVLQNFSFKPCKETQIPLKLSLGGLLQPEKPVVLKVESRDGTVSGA

With `COc1ncnc(Cn2cc(C(=O)NCCF)c3ncc(Br)cc32)c1C`, the MIC in [1] came to 1.56 µM (≈ 0.659 µg/mL). Also, the midpoint of inhibition in data set [2], the IC50, lay at 22 nM. The logD (as a rule, lipophilicity at a set pH, counting ionised and neutral species) in [3] turned out to be 2.4.

Turning to `COc1cnc2c(C(=O)NCCO)cn(Cc3ncnc(OC(F)F)c3C)c2c1`, the MIC in [1] was found to be 0.78 µM (≈ 0.318 µg/mL). Besides, the midpoint of inhibition in data set [2], the IC50, lay at 17 nM.

On to `CO[C@H]1/C=C/O[C@@]2(C)Oc3c(C)c(O)c4c(O)c(cc(O)c4c3C2=O)NC(=O)/C(C)=C\C=C\[C@H](C)[C@H](O)[C@@H](C)[C@@H](O)[C@@H](C)[C@H](OC(C)=O)[C@@H]1C` [RIFAMYCIN], for which the MIC in [4] was found to be 0.004 µM (≈ 0.00279 µg/mL).

With `COc1cnc2c(C(=O)NCCO)cn(Cc3ncnc(OC)c3C)c2c1`, the MIC was determined as 0.78 µM (≈ 0.29 µg/mL) in [1] and 1.56 µM (≈ 0.579 µg/mL) in [4]. For the same molecule, the IC50 (commonly the concentration that inhibits the measured activity by half) in [2] is 19 nM; in data set [5], 2000 nM; in data set [10], more than 50000 nM; in data set [11], more than 50000 nM; in [12], more than 50000 nM; in [13], more than 50000 nM. For the same molecule, the IC50 in data set [14] was more than 50000 nM. In data set [6], the microsomal CLint is less than 24 µL/min/mg. Also, in [3], the logD was determined as 1.6. For the same molecule, in data set [7], the concentration in solution (solubility at 24 h) was 315 µM (≈ 117 µg/mL). Also, the fraction unbound – broadly, the share of the substance not bound to proteins or other matrix – in data set [8] is 0.17. In addition, the Papp A→B in data set [9] amounted to 11 ×10⁻⁶ cm/s. In addition, the apparent clearance CL/F – broadly, the apparent clearance, not corrected for the fraction that reaches the circulation – in [15] amounted to 12 mL/min/kg. Also, the bioavailability (commonly the share of a dose that reaches the circulation, judged against a reference dose that is usually intravenous) in [16] worked out at 100%. In [17], the highest level (Cmax) was 105 µM. Also, in data set [18], the Tmax – broadly, the time from dosing to the highest level – came to 0.5 h. In addition, in [19], the AUC(0-inf) (in general, the area under the concentration-time curve extrapolated to infinity) came out at 286 µM·h. In addition, the half-life (in general, how long it takes for the measured level to halve) in data set [20] was 2 h. Moreover, the Papp B→A in data set [21] is 31 ×10⁻⁶ cm/s.

For `COc1cnc2c(C(=O)NCCF)cn(Cc3ncnc(OC)c3C)c2c1`, in data set [1], the MIC is less than 0.39 µM. Moreover, in data set [2], 13 nM corresponded to half-maximal inhibition (IC50). In addition, the microsomal CLint in data set [6] came to 129 µL/min/mg. The logD in data set [3] was found to be 2.5.

In turn, `NNC(=O)c1ccncc1` [ISONIAZID] gave an MIC in data set [4] of 0.312 µM (≈ 0.0428 µg/mL).

With `Cc1cnc2c(C(=O)NCC(F)F)cn(Cc3ncc(C)nc3C)c2c1`, the MIC in data set [1] was less than 0.39 µM. Also, in data set [2], half-maximal inhibition (IC50) was put at 15 nM. Besides, the logD in data set [3] came to 2.4.

Consider `COc1ncnc(Cn2cc(C(=O)NCCF)c3ncc(C(F)(F)F)cc32)c1C`, for which, in data set [1], the MIC is more than 200 µM. The IC50 in data set [2] came to 200 nM.

`COc1c(N2C[C@@H]3CCCN[C@@H]3C2)c(F)cc2c(=O)c(C(=O)O)cn(C3CC3)c12` [MOXIFLOXACIN] displayed an MIC in [4] of 0.125 µM (≈ 0.0502 µg/mL).

For `COc1ncnc(Cn2cc(C(=O)NCCF)c3ncc(F)cc32)c1C`, the MIC in data set [1] came out at 6.25 µM (≈ 2.26 µg/mL).

Regarding `COc1cnc2c(C(=O)NCC(F)F)cn(Cc3ncnc(OC)c3C)c2c1`, in data set [1], the MIC was less than 0.39 µM. In data set [2], this molecule gave an IC50 of 9 nM. Moreover, the microsomal CLint in [6] came to 106 µL/min/mg. This molecule also displayed a logD in data set [3] of 2.8.

With `COc1cnc2c(C(=O)NCC(F)F)cn(Cc3ncnc(N(C)C)c3C)c2c1`, the MIC in data set [1] was less than 0.39 µM. Besides, the IC50 in [2] is 3 nM. For the same molecule, the microsomal CLint in data set [6] was more than 130 µL/min/mg. Moreover, the logD in [3] amounted to 2.5.

With `COc1ccc2c(n1)c(C(=O)NCC1CC1)cn2Cc1ccc(C)cc1C`, the MIC in [1] is more than 100 µM.

On to `Cc1cnc2c(C(=O)NCCF)cn(Cc3nccc(OCC(F)(F)F)c3C)c2c1`, for which, in data set [1], the MIC was determined as 1.56 µM (≈ 0.662 µg/mL). Further, the IC50 in [2] was 19 nM; in data set [5] it was more than 100000 nM.

`Cc1c(Cn2cc(C(=O)NCCF)c3ncccc32)ncnc1N(C)C`: the IC50 was 20 nM in [2] and more than 100000 nM in data set [5].
